# Data published in paper PMC4317055 (Journal of Medicinal Chemistry, 2014).
# Key:
# human factor XIa [1] = biological target: T1, human factor XIa (Homo sapiens, UniProt P03951); assay: Dose-response inhibition of wild-type factor XIa, S-2366 hydrolysis assay; details: for HS (Hill slope) / Y0 (minimum value of the residual activity): logistic fit eq 1; for Y0 (minimum value of the residual activity): residual activity Y in %; for improvement in potency over the best sulfated QAO designed earlier: comparison with earlier studies
# T1 sequence (P03951 19-387 limits assumed): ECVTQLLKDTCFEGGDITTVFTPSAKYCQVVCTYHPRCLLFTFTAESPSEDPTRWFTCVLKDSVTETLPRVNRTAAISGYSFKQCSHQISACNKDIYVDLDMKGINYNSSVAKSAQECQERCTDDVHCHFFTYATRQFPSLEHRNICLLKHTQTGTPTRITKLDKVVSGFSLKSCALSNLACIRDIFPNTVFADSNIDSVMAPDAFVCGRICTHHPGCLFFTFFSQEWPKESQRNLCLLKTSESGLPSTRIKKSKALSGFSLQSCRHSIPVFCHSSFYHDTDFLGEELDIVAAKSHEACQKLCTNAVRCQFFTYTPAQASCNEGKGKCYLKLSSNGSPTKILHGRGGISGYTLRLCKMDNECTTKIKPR
# T1 sequence (P03951 388-625 limits assumed): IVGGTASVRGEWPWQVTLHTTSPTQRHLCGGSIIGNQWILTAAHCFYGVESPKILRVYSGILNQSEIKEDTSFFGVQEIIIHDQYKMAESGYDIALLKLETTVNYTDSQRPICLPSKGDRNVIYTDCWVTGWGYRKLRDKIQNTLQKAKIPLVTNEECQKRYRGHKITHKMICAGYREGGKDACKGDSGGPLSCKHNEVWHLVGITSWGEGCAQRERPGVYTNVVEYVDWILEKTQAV
# human factor XIa [2] = biological target: T1, human factor XIa; format: biochemical; details: 50 mM Tris-HCl pH 7.4, 37 °C; for enhancement of fXIa catalysis in the screen: 300 μM compound; for reduction in residual fXIa activity (inhibition) in the screen: 300 μM inhibitor
# factor XIa = assay: Competitive inhibition studies using unfractionated heparin as a competitor; format: biochemical, human; details: UFH 0 to 16 μM; 50 mM Tris-HCl pH 7.4, 37 °C
# human factor XIa [3] = biological target: T1, human factor XIa; assay: Michaelis-Menten kinetics of S-2366 hydrolysis in the presence of inhibitors; format: biochemical; details: for VMAX: S-2366 0-1.6 mM; for mechanism of inhibition: VMAX reduced dose-dependently without significant change in KM
# [4] = system: fluorescein-EGR factor XIa (fEGR-fXIa); format: binding, human; details: bolus giving ∼33 μM in fXIa solution quenched with 0.175 M NaI
Compound,HS (Hill slope) (human factor XIa [1]),Y0 (minimum value of the residual activity) (human factor XIa [1]),further results
CCOC(=O)c1c(C)oc2cc(OC)c(OCc3oc4cc(OC)c(OCc5oc6cc(OC)c(OCc7oc8cc(OC)c(OS(=O)(=O)[O-])cc8c7C(=O)OCC)cc6c5C(=O)OCC)cc4c3C(=O)OCC)cc12.[Na+] [compound 32],1.3 ± 0.2,0 ± 1,
O=C(Nc1ccc(OS(=O)(=O)[O-])cc1)c1cccc(N2C(=O)c3ccc(C(=O)Nc4ccc(OS(=O)(=O)[O-])cc4)cc3C2=O)c1.[Na+].[Na+] [compound 63],6.0 ± 0.9,0 ± 1,
CCOC(=O)c1c(COc2cc3c(C(=O)O)c(C)oc3cc2OC)oc2cc(OC)c(OCc3oc4cc(OC)c(OS(=O)(=O)[O-])cc4c3C(=O)OCC)cc12.[Na+] [compound 30],6.9 ± 0.7,3 ± 2,less potent than 3-carboxyethyl ester analogue 27 (human factor XIa [1]; IC50 ratio 30 vs 27): 4.7 fold
CCOC(=O)C1Cc2cc(OS(=O)(=O)[O-])c(OS(=O)(=O)[O-])cc2CN1C(=O)c1ccc(OS(=O)(=O)[O-])c(OS(=O)(=O)[O-])c1.[Na+].[Na+].[Na+].[Na+] (stereo not shown) [compound 35],,,enhancement of fXIa catalysis in the screen (human factor XIa [2]): 20–30%
CCOC(=O)c1c(C)oc2cc(OC)c(OCc3oc4cc(OC)c(OCc5oc6cc(OC(C)C)c(OS(=O)(=O)[O-])cc6c5C(=O)OCC)cc4c3C(=O)OCC)cc12.[Na+] [compound 25],6.6 ± 0.8,3 ± 2,
COC(=O)c1c(C)oc2cc(OC)c(OCc3oc4cc(OC)c(OS(=O)(=O)[O-])cc4c3C(=O)OC)cc12.[Na+] [compound 15],6.9 ± 1.2,4 ± 4,
CCOC(=O)c1c(C)oc2cc(OC)c(OCc3oc4cc(OC)c(OCc5oc6cc(OC)c(OS(=O)(=O)[O-])cc6c5C(=O)OCC)cc4c3C(=O)OCC)cc12.[Na+] [compound 27],11.7 ± 1.5,2 ± 1,
CCOC(=O)c1c(COc2cc3c(C(=O)OCC)c(COc4cc5c(C(=O)O)c(C)oc5cc4OC)oc3cc2OC)oc2cc(OC)c(O)cc12 [compound 29],1.9 ± 0.4,0 ± 1,loss in activity from sulfated analogue 30 (human factor XIa [1]; IC50 ratio 29 vs 30): ~13 fold
C=CCOC(=O)c1c(C)oc2cc(OC)c(OCc3oc4cc(OC)c(OCc5oc6cc(OC)c(OS(=O)(=O)[O-])cc6c5C(=O)OCC)cc4c3C(=O)OCC)cc12.[Na+] [compound 28],6.4 ± 0.9,10 ± 2,
CCOC(=O)c1c(C)oc2cc(OC)c(OCc3oc4cc(OC)c(OCc5oc6cc(OS(=O)(=O)[O-])c(OC)cc6c5C(=O)OCC)cc4c3C(=O)OCC)cc12.[Na+] [compound 31],,,reduction in residual fXIa activity (inhibition) in the screen (human factor XIa [2]): did not inhibit fXIa
O=C(c1cc(OS(=O)(=O)[O-])cc(OS(=O)(=O)[O-])c1)N1CCc2cc(OS(=O)(=O)[O-])c(OS(=O)(=O)[O-])cc2C1.[Na+].[Na+].[Na+].[Na+] [compound 33],,,enhancement of fXIa catalysis in the screen (human factor XIa [2]): 20–30%
CCOC(=O)c1c(C)oc2cc(OC)c(OCc3oc4cc(OCC)c(OS(=O)(=O)[O-])cc4c3C(=O)OCC)cc12.[Na+] [compound 21],1.9 ± 0.3,0 ± 2,"change in IC50 in the presence of UFH (factor XIa): no significant change; improvement in potency over the best sulfated QAO designed earlier (human factor XIa [1]): 10 fold; VMAX (human factor XIa [3]; 21 at 5 μM, fXIa 0.365 nM): 37.4 ± 1.4 mAU/min; VMAX (human factor XIa [3]; 21 at 7.25 μM, fXIa 0.365 nM): 30.7 ± 0.6 mAU/min; VMAX (human factor XIa [3]; 21 at 10 μM, fXIa 0.365 nM): 20.3 ± 1.2 mAU/min; mechanism of inhibition (human factor XIa [3]): noncompetitive inhibition"
O=C(c1cc(OS(=O)(=O)[O-])c(OS(=O)(=O)[O-])c(OS(=O)(=O)[O-])c1)N1CCc2cc(OS(=O)(=O)[O-])c(OS(=O)(=O)[O-])cc2C1.[Na+].[Na+].[Na+].[Na+].[Na+] [compound 36],,,enhancement of fXIa catalysis in the screen (human factor XIa [2]): 20–30%
CCOC(=O)c1c(C)oc2cc(OCc3oc4cc(OC)c(OS(=O)(=O)[O-])cc4c3C(=O)OCC)c(OC)cc12.[Na+] [compound 22],,,reduction in residual fXIa activity (inhibition) in the screen (human factor XIa [2]): did not inhibit fXIa
CCOC(=O)c1c(C)oc2cc(OC)c(OCc3oc4cc(OC)c(OCc5oc6cc(OCC)c(OS(=O)(=O)[O-])cc6c5C(=O)OCC)cc4c3C(=O)OCC)cc12.[Na+] [compound 24],3.8 ± 0.3,0 ± 1,"change in IC50 in the presence of UFH (factor XIa): no significant change; improvement in potency over the best sulfated QAO designed earlier (human factor XIa [1]): ~50 fold; nature of the interaction with fXIa (recovery of fluorescence after bolus) [4]: fully reversible; VMAX (human factor XIa [3]; 24 at 150 nM, fXIa 0.765 nM): 57.1 ± 1.8 mAU/min; VMAX (human factor XIa [3]; 24 at 300 nM, fXIa 0.765 nM): 48.7 ± 1.7 mAU/min; VMAX (human factor XIa [3]; 24 at 550 nM, fXIa 0.765 nM): 34.9 ± 0.9 mAU/min; VMAX (human factor XIa [3]; 24 at 900 nM, fXIa 0.765 nM): 9.8 ± 0.5 mAU/min; mechanism of inhibition (human factor XIa [3]): noncompetitive inhibition"
CCOC(=O)c1c(C)oc2cc(OC)c(OCc3oc4cc(OC)c(OCc5oc6cc(OC)c(OS(=O)(=O)[O-])cc6c5C(=O)OC)cc4c3C(=O)OCC)cc12.[Na+] [compound 23],5.2 ± 0.4,7 ± 1,
N#Cc1c(SCC(=O)c2cccc(OS(=O)(=O)[O-])c2OS(=O)(=O)[O-])nc([N+](=O)[O-])c(C#N)c1-c1ccc(Oc2ccccc2)cc1.[Na+].[Na+] [compound 61],6.2 ± 0.5,0 ± 1,
O=C([O-])C1Cc2cc(OS(=O)(=O)[O-])c(OS(=O)(=O)[O-])cc2CN1C(=O)c1cc(OS(=O)(=O)[O-])c(OS(=O)(=O)[O-])c(OS(=O)(=O)[O-])c1.[Na+].[Na+].[Na+].[Na+].[Na+].[Na+] (stereo not shown) [compound 37],,,enhancement of fXIa catalysis in the screen (human factor XIa [2]): 20–30%
